Results taken from patent US20220033397A1, “PHARMACEUTICAL COMPOUNDS AND THEIR USE AS INHIBITORS OF UBIQUITIN SPECIFIC PROTEASE 19 (USP19)” (ALMAC DISCOVERY LIMITED, priority 2018, published 2022).

Biological target: T1, Full-length USP19 (Homo sapiens, UniProt O94966)
T1 construct: Full-length USP19 was purchased from Boston Biochem (E-576); purchased Boston Biochem E-576
T1 sequence (O94966 1-1318): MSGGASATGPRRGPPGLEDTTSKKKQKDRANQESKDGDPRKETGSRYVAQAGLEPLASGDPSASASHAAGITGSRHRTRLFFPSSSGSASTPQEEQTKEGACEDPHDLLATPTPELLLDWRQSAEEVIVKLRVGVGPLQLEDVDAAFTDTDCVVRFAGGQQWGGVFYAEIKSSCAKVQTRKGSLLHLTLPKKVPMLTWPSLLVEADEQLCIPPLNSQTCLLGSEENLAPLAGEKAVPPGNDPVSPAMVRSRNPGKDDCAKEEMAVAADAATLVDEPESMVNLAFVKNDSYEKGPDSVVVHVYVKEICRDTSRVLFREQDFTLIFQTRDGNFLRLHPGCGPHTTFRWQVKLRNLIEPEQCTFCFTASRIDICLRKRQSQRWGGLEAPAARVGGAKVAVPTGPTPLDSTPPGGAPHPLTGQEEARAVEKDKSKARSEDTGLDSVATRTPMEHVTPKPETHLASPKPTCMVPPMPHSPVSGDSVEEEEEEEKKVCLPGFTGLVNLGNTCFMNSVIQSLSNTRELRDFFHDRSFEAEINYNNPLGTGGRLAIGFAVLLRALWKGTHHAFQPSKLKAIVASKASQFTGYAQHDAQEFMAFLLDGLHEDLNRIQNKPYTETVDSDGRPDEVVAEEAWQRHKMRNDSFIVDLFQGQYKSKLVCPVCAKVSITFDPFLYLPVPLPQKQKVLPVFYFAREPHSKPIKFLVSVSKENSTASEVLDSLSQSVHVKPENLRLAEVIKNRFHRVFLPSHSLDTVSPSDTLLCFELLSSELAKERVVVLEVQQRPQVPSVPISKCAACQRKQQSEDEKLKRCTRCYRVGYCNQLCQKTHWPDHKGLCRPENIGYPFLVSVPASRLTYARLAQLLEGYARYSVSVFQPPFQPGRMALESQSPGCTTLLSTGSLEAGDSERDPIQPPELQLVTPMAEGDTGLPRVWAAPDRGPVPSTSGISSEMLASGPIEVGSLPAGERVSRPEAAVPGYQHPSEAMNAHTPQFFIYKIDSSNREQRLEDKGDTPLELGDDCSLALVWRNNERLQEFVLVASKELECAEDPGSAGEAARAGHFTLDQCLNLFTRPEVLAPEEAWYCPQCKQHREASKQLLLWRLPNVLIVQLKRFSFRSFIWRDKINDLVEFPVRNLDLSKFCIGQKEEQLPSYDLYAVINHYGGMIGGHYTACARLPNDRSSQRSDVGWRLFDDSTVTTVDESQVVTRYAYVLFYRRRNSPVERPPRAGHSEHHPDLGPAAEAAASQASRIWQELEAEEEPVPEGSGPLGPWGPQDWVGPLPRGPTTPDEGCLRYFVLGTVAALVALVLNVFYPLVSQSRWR
Experiment: USP19 fluorescence polarisation (FP) homogeneous assay with Ubiquitin-Lys-TAMRA substrate
Format: biochemical
Conditions: 2.5 nM USP19, 30 min pre-incubation, average of at least two duplicate experiments
In short: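 Full-length USP19 preincubated 30 min at RT with inhibitor (200 μM to 2 μM series, 8–18 points) before adding 500 nM Ubiquitin-Lys-TAMRA substrate.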

Compound	IC50
COc1ccc(C2CNCCN2C(=O)N2CCC(O)(Cn3cnc(-c4ccccc4)cc3=O)C3(CCCC3)C2)cc1 (stereo not drawn) [Example 273, 3-((10-Hydroxy-7-(2-(4-methoxyphenyl)piperazine-1-carbonyl)-7-azaspiro[4.5]decan-10-yl)methyl)-6-phenylpyrimidin-4(3H)-one]	5 to 50 µM
Cc1cccc(-c2cc(=O)n(C[C@]3(O)CCN(C(=O)N4CCNC[C@H]4c4cc(F)ccc4F)CC34CCCC4)cn2)c1 [Example 386, 3-(((S)-7-((R)-2-(2,5-Difluorophenyl)piper-azine-1-carbonyl)-10-hydroxy-7-azaspiro[4.5]decan-10-yl)methyl)-6-(m-tolyl)pyrimidin-4(3H)-one]	< 0.5 µM
C[C@H](CC(F)(F)F)C(=O)N1CCC(O)(Cn2ccc3cc(C(F)(F)F)ccc3c2=O)C2(CCCC2)C1 (stereo partly drawn) [Example 126, 2-((10-Hydroxy-7-((R)-4,4,4-trifluoro-2-methylbutanoyl)-7-azaspiro[4.5]decan-10-yl)methyl)-6-(trifluoromethyl)isoquinolin-1(2H)-one]	5 to 50 µM
CSc1cn(CC2(O)CCN(C(=O)N3CCNC[C@H]3c3ccccc3)CC23CCCC3)c(=O)cc1-c1ccccc1 (stereo partly drawn) [Example 186, 1-((10-Hydroxy-7-((R)-2-phenylpiperazine-1-carbonyl)-7-azaspiro[4.5]decan-10-yl)methyl)-5-(methylthio)-4-phenylpyridin-2(1H)-one]	< 0.5 µM
O=C(N1CCC(O)(Cn2cnc(-c3ccccc3)cc2=O)C2(CCCC2)C1)N1CCOCC1C(F)(F)F (stereo not drawn) [Example 263, 3-((10-Hydroxy-7-(3-(trifluoromethyl)morpholine-4-carbonyl)-7-azaspiro[4.5]decan-10-yl)methyl)-6-phenylpyrimidin-4(3H)-one]	5 to 50 µM
CN(C)C(=O)c1cn(CC2(O)CCN(C(=O)N(C)Cc3ccccc3)CC23CCCC3)c(=O)cc1-c1ccccc1 (stereo not drawn) [Example 87, N-Benzyl-10-((5-(dimethylcarbamoyl)-2-oxo-4-phenylpyridin-1(2H)-yl)methyl)-10-hydroxy-N-methyl-7-azaspiro[4.5]decane-7-carboxamide]	< 0.5 µM
COc1ccc2c(=O)n(CC3(O)CCN(C(=O)[C@H](C)CC4CCCCC4)CC34CCCC4)cnc2c1 (stereo partly drawn) [Example 139, 3-((7-((R)-3-Cyclohexyl-2-methylpropanoyl)-10-hydroxy-7-azaspiro[4.5]decan-10-yl)methyl)-7-methoxyquinazolin-4(3H)-one]	0.5 to 5 µM
CN(Cc1cccnc1)C(=O)N1CCC(O)(Cn2cnc(-c3ccccc3)cc2=O)C2(CCCC2)C1 (stereo not drawn) [Example 244, 10-Hydroxy-N-methyl-10-((6-oxo-4-phenylpyrimidin-1(6H)-yl)methyl)-N-(pyridin-3-ylmethyl)-7-azaspiro[4.5]decane-7-carboxamide]	5 to 50 µM
COc1c(F)cccc1-c1cc(=O)n(C[C@]2(O)CCN(C(=O)N3CCNC[C@H]3c3ccccc3)CC23CCCC3)cn1 [Example 383, 6-(3-Fluoro-2-methoxyphenyl)-3-(((S)-10-hydroxy-7-((R)-2-phenyl-piperazine-1-carbonyl)-7-aza-spiro[4.5]decan-10-yl)methyl)pyrimidin-4(3H)-one]	< 0.5 µM
O=C(N1CC[C@@](O)(Cn2cnc(C3CC3)cc2=O)C2(CCCC2)C1)N1CCNC[C@H]1c1ccccc1 [Example 292, 6-Cyclopropyl-3-(((S)-10-hydroxy-7-((R)-2-phenylpiperazine-1-carbonyl)-7-azaspiro[4.5]decan-10-yl)methyl)pyrimidin-4(3H)-one]	< 0.5 µM
C[C@@H]1CN(CC2(O)CCN(C(=O)[C@H](C)CC(F)(F)F)CC23CCCC3)C(=O)CO1 (stereo partly drawn) [Example 94, (6R)-4-((10-Hydroxy-7-((R)-4,4,4-trifluoro-2-methylbutanoyl)-7-azaspiro[4.5]decan-10-yl)methyl)-6-methylmorpholin-3-one]	50 to 250 µM
O=C(NCc1ccccc1)N1CCC(O)(Cn2cnc(-c3ccccc3)cc2=O)C2(CCCC2)C1 (stereo not drawn) [Example 193, N-Benzyl-10-hydroxy-10-((6-oxo-4-phenylpyrimidin-1(6H)-yl)methyl)-7-azaspiro[4.5]decane-7-carboxamide]	< 0.5 µM
O=C(N1CC[C@@](O)(Cn2cnc(-c3ccc(OC4CC4)cc3)cc2=O)C2(CCCC2)C1)N1CCNC[C@H]1c1ccccc1 [Example 350, 6-(4-Cyclo-propoxyphenyl)-3-(((S)-10-hydroxy-7-((R)-2-phenylpipera-zine-1-carbonyl)-7-azaspiro[4.5]decan-10-yl)methyl)pyrimi-din-4(3H)-one]	< 0.5 µM
CN(C(=O)N1CCC(O)(Cn2cnc(-c3ccccc3)cc2=O)C2(CCCC2)C1)C1CCC1 (stereo not drawn) [Example 234, N-Cyclobutyl-10-hydroxy-N-methyl-10-((6-oxo-4-phenylpyrimidin-1(6H)-yl)methyl)-7-azaspiro[4.5]decane-7-carboxamide]	5 to 50 µM
CNc1cc(=O)n(C[C@]2(O)CCN(C(=O)N3CCNC[C@H]3c3ccccc3)CC23CCCC3)cn1 [Example 319, 3-(((S)-10-Hydroxy-7-((R)-2-phenylpiperazine-1-carbonyl)-7-azaspiro[4.5]decan-10-yl)methyl)-6-(methylamino)pyrimidin-4(3H)-one]	< 0.5 µM
N#Cc1cccc(CNC(=O)N2CCC(O)(Cn3cnc(-c4ccccc4)cc3=O)C3(CCCC3)C2)c1 (stereo not drawn) [Example 257, N-(3-Cyanobenzyl)-10-hydroxy-10-((6-oxo-4-phenylpyrimidin-1(6H)-yl)methyl)-7-azaspiro[4.5]decane-7-carboxamide]	5 to 50 µM
Cc1nc([C@@H]2CCCN2C(=O)N2CCC(O)(Cn3cnc(-c4ccccc4)cc3=O)C3(CCCC3)C2)n[nH]1 (stereo partly drawn) [Example 269, 3-((10-Hydroxy-7-((S)-2-(5-methyl-1H-1,2,4-triazol-3-yl)pyrrolidine-1-carbonyl)-7-azaspiro[4.5]decan-10-yl)methyl)-6-phenylpyrimidin-4(3H)-one]	50 to 250 µM
O=C(N1CCC(O)(Cn2cnc(-c3ccccc3)cc2=O)C2(CCCC2)C1)N1CCCC1c1cccnc1 (stereo not drawn) [Example 245, 3-((10-Hydroxy-7-(2-(pyridin-3-yl)pyrrolidine-1-carbonyl)-7-azaspiro[4.5]decan-10-yl)methyl)-6-phenylpyrimidin-4(3H)-one]	0.5 to 5 µM
O=C(N1CC[C@@](O)(Cn2cnc(-c3ccccc3)cc2=O)C2(CCCC2)C1)N1CCNCC1c1ccc(F)c(F)c1 (stereo partly drawn) [Example 379, 3-(((10S)-7-(2-(3,4-Difluorophenyl)piper-azine-1-carbonyl)-10-hydroxy-7-azaspiro[4.5]decan-10-yl)methyl)-6-phenylpyrimidin-4(3H)-one]	< 0.5 µM
O=C(N1CCC(O)(Cn2ncc(-c3ccccc3)cc2=O)C2(CCCC2)C1)N1CCOC[C@H]1c1ccccc1 (stereo partly drawn) [Example 280, 2-((10-Hydroxy-7-((R)-3-phenylmorpholine-4-carbonyl)-7-azaspiro[4.5]decan-10-yl)methyl)-5-phenylpyridazin-3(2H)-one]	< 0.5 µM
COc1cc2ccn(CC3(O)CCN(C(=O)[C@H](C)CC4CCCCC4)CC34CCCC4)c(=O)c2cc1OC (stereo partly drawn) [Example 146, 2-((7-((R)-3-Cyclohexyl-2-methylpropanoyl)-10-hydroxy-7-azaspiro[4.5]decan-10-yl)methyl)-6,7-dimethoxyisoquinolin-1(2H)-one]	0.5 to 5 µM
CC(=O)N1CCN(CC2(O)CCN(C(=O)[C@H](C)CC3CCCCC3)CC23CCCC3)C(=O)C1 (stereo partly drawn) [Example 48, 4-Acetyl-1-((7-((R)-3-cyclohexyl-2-methylpropanoyl)-10-hydroxy-7-azaspiro[4.5]decan-10-yl)methyl)piperazin-2-one]	< 0.5 µM
C[C@H](CC(F)(F)F)C(=O)N1CCC(O)(CN2CCOCC2=O)C2(CCCC2)C1 (stereo partly drawn) [Example 32, 4-((10-Hydroxy-7-((R)-4,4,4-trifluoro-2-methylbutanoyl)-7-azaspiro[4.5]decan-10-yl)methyl)morpholin-3-one]	50 to 250 µM
O=C(N1CC[C@@](O)(Cn2cnc(-c3cccs3)cc2=O)C2(CCCC2)C1)N1CCNC[C@H]1c1ccccc1 [Example 343, 3-(((S)-10-Hydroxy-7-((R)-2-phenylpiperazine-1-carbonyl)-7-azaspiro[4.5]decan-10-yl)methyl)-6-(thiophen-2-yl)pyri-midin-4(3H)-one]	< 0.5 µM
